According to patent US20250002507A1, “7,8-DIHYDRO-5H-1,6-NAPHTHYRIDINE DERIVATIVES AS POSITIVE ALLOSTERIC MODULATORS OF THE MUSCARINIC ACETYLCHOLINE RECEPTOR M4 FOR TREATING NEUROLOGICAL AND PSYCHIATRIC DISORDERS” (Vanderbilt University, priority 2021, published 2025):
pEC50: −log10 of the molar value.

Key:
Human M4 = target: T1, Human M4 (Homo sapiens, UniProt P08173); assay: mAChR M4 cell-based functional assay (calcium flux, potentiation of EC20 acetylcholine response), hM4-Gqi5 CHO-K1 cells; details: Table 4; for Emax at 30 µM: CHO-K1, Human M4, % ACh maximum at 30 μM, read-out: Emax (% ACh maximum at 30 μM); for pEC50: potentiation of EC20 acetylcholine response, calcium flux, CHO-K1 cells, read-out: Human M4 EC50
T1 construct: expressed in transfected cells
T1 sequence (P08173 1-479): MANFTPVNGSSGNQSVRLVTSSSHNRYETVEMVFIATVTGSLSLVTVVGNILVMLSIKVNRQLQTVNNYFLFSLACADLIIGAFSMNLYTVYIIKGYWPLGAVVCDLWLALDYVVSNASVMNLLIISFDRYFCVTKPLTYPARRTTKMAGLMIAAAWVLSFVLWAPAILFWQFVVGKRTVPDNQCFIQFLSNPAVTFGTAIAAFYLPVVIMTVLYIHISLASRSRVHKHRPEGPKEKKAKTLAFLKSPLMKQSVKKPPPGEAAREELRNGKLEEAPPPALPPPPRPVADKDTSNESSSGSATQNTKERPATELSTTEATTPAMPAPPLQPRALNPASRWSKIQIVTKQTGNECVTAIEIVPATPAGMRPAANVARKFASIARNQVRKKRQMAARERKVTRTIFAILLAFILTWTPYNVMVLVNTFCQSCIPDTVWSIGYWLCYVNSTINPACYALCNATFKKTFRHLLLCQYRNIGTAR
How it was run: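 CHO-K1 cells stably expressing human M4 with chimeric Gqi5, loaded with Fluo-4 AM 50 min at 37 °C; calcium flux read by FDSS. 11-point 1:3 compound curves added, then EC20 acetylcholine at 144 s; potentiation of the EC20 response fitted by four-parameter logistic to give EC50 and Emax.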

patients = patients treated with AChE inhibitor; cited from earlier work
[1] = system: Alzheimer's disease patients; details: Bodick et al. 1997; cited from earlier work

Row | Compound | Emax at 30 µM (Human M4) | pEC50 (Human M4) | elevated liver transaminases, share of patients (patients) | effect on psychotic behavioral symptoms [1]
1 | Cc1c(N2CCc3ncc(C(F)(F)F)cc3C2)nn2cnnc2c1C(F)(F)F [Compound 351, 6-(7-Methyl-8-(trifluoromethyl)-[1,2,4]triazolo[4,3-b]pyridazin-6-yl)-3-(trifluoromethyl)-5,6,7,8-tetrahydro-1,6-naphthyridine] | 77% | 5.85 |  | 
2 | [2H]C1([2H])Cc2ncc(Nc3cc(C)ncc3F)cc2C([2H])([2H])N1c1nn2cnnc2cc1C [Compound 352, N-(5-fluoro-2-methylpyridin-4-yl)-6-(7-methyl-[1,2,4]triazolo[4,3-b]pyridazin-6-yl)-5,6,7,8-tetrahydro-1,6-naphthyridin-5,5,7,7-d4-3-amine] | 98% | 7.17 |  | 
3 | [2H]C1([2H])Cc2ncc(Nc3cc(C)ncc3F)cc2C([2H])([2H])N1c1nn2cnnc2c(C)c1C [Compound 353, 6-(7,8-dimethyl-[1,2,4]triazolo[4,3-b]pyridazin-6-yl)-N-(5-fluoro-2-methylpyridin-4-yl)-5,6,7,8-tetrahydro-1,6-naphthyridin-5,5,7,7-d4-3-amine] | 99% | 7.66 |  | 
4 | [2H]C1([2H])Cc2ncc(Nc3cccnc3C)cc2C([2H])([2H])N1c1nn2cnnc2cc1C [Compound 354, 6-(7-methyl-[1,2,4]triazolo[4,3-b]pyridazin-6-yl)-N-(2-methylpyridin-3-yl)-5,6,7,8-tetrahydro-1,6-naphthyridin-5,5,7,7-d4-3-amine] | 87% | 6.45 |  | 
5 | [2H]C1([2H])Cc2ncc(Nc3ccncc3F)cc2C([2H])([2H])N1c1nn2cnnc2cc1C [Compound 355, N-(3-Fluoropyridin-4-yl)-6-(7-methyl-1,2,4[triazolo 4,3-b]pyridazin-6-yl)-5,6,7,8-tetrahydro-1,6-naphthyridin-5,5,7,7-d4-3-amine] | 94% | 7.85 |  | 
6 | [2H]C1([2H])Cc2ncc(Nc3ccncc3C)cc2C([2H])([2H])N1c1nn2cnnc2cc1C [Compound 356, 6-(7-methyl-[1,2,4]triazolo[4,3-b]pyridazin-6-yl)-N-(3-methylpyridin-4-yl)-5,6,7,8-tetrahydro-1,6-naphthyridin-5,5,7,7-d4-3-amine] | 77% | 6.16 |  | 
7 | [2H]C1([2H])Cc2ncc(Nc3ccncc3C)cc2C([2H])([2H])N1c1nn2cnnc2c(C)c1C [Compound 357, 6-(7,8-dimethyl-[1,2,4]triazolo[4,3-b]pyridazin-6-yl)-N-(3-methylpyridin-4-yl)-5,6,7,8-tetrahydro-1,6-naphthyridin-5,5,7,7-d4-3-amine] | 74% | 6.77 |  | 
8 | [2H]C1([2H])Cc2ncc(Nc3ccncc3F)cc2C([2H])([2H])N1c1nn2cnnc2c(C)c1C [Compound 358, 6-(7,8-dimethyl-[1,2,4]triazolo[4,3-b]pyridazin-6-yl)-N-(3-fluoropyridin-4-yl)-5,6,7,8-tetrahydro-1,6-naphthyridin-5,5,7,7-d4-3-amine] | 96% | 8.52 |  | 
9 | [2H]C1([2H])Cc2ncc(Nc3ccccc3F)cc2C([2H])([2H])N1c1nn2cnnc2cc1C [Compound 359, N-(2-fluorophenyl)-6-(7-methyl-[1,2,4]triazolo[4,3-b]pyridazin-6-yl)-5,6,7,8-tetrahydro-1,6-naphthyridin-5,5,7,7-d4-3-amine] | 116% | 8.15 |  | 
10 | Cc1cc2nncn2nc1N1CCc2ncc(Nc3ccncc3F)cc2C1 [Compound 360, N-(3-fluoropyridin-4-yl)-6-(7-methyl-[1,2,4]triazolo[4,3-b]pyridazin-6-yl)-5,6,7,8-tetrahydro-1,6-naphthyridin-3-amine] | 100% | 8.30 |  | 
11 | Cc1c(N2CCc3ncc(Nc4ccncc4F)cc3C2)nn2cnnc2c1C [Compound 361, 6-(7,8-dimethyl-[1,2,4]triazolo[4,3-b]pyridazin-6-yl)-N-(3-fluoropyridin-4-yl)-5,6,7,8-tetrahydro-1,6-naphthyridin-3-amine] | 100% | 8.70 |  | 
12 | Cc1cc(Nc2cnc3c(c2)CN(c2nn4cnnc4cc2C)CC3)c(F)cn1 [Compound 362, N-(5-fluoro-2-methylpyridin-4-yl)-6-(7-methyl-[1,2,4]triazolo[4,3-b]pyridazin-6-yl)-5,6,7,8-tetrahydro-1,6-naphthyridin-3-amine] | 97% | 7.29 |  | 
13 | Cc1cc(Nc2cnc3c(c2)CN(c2nn4cnnc4c(C)c2C)CC3)c(F)cn1 [Compound 363, 6-(7,8-dimethyl-[1,2,4]triazolo[4,3-b]pyridazin-6-yl)-N-(5-fluoro-2-methylpyridin-4-yl)-5,6,7,8-tetrahydro-1,6-naphthyridin-3-amine] | 93% | 7.59 |  | 
14 | Cc1cnccc1Nc1cnc2c(c1)CN(c1nn3cnnc3cc1C)CC2 [Compound 364, 6-(7-methyl-[1,2,4]triazolo[4,3-b]pyridazin-6-yl)-N-(3-methylpyridin-4-yl)-5,6,7,8-tetrahydro-1,6-naphthyridin-3-amine] | 83% | 5.60 |  | 
15 | Cc1cnccc1Nc1cnc2c(c1)CN(c1nn3cnnc3c(C)c1C)CC2 [Compound 365, 6-(7,8-dimethyl-[1,2,4]triazolo[4,3-b]pyridazin-6-yl)-N-(3-methylpyridin-4-yl)-5,6,7,8-tetrahydro-1,6-naphthyridin-3-amine] | 63% | 6.95 |  | 
16 | Nc1c2c(nc3ccccc13)CCCC2 [tacrine] |  |  | about 30% | 
17 | CCCCCCOc1nsnc1C1=CCCN(C)C1 [xanomeline] |  |  |  | reduce psychotic behavioral symptoms
